For the test, the target named is Cyclin-dependent kinase 7 (Homo sapiens) (UniProt P50613). Nature of the test: off-target CDK7 activity blockade – biochemical, 57K library addition, counter-screen for PKD inhibitor project, dose response (AID 1380). Particulars: CDK7 biochemical kinase assay, counterscreen.

Calls of active or inactive are those of the source. The rule behind the calls is not given here.

Cyclin-dependent kinase 7 (Homo sapiens), sequence (P50613 whole entry, looked up): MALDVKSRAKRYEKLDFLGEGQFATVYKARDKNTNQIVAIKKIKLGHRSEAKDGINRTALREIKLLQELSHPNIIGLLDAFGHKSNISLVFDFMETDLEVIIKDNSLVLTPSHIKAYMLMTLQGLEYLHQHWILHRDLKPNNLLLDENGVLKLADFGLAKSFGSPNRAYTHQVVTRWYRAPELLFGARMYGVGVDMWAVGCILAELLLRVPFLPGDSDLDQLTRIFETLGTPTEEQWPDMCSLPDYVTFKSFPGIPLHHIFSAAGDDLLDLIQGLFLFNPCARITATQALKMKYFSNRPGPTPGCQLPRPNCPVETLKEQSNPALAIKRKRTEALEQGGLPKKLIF

On to `C/C(=N\Nc1ncc(Cl)cc1Cl)c1ccccn1`, for which the IC50 was > 100 µM (inactive).

(Values after PubChem BioAssay AID1380 (University of Pittsburgh Molecular Library Screening Center, 2008).)
